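These data come from cells grown in 96-well plates and exposed to compound for 48 hours at five concentrations. At the TGI there is no net growth.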

This passage reports TGI results from PubChem BioAssay (NCI).

Test systems include 786-0 renal; A498 renal; HS 578T breast; HT29 colon; MCF7 breast; MOLT-4 leukemia; SF-539 CNS; SK-OV-3 ovarian; SR leukemia; T-47D breast.
Test in all cases: inhibition of tumour cell growth, NCI panel, 48 h

With `NC(N)=NS(=O)(=O)c1ccc(NC(=O)c2ccc3nc4ccccc4c(Nc4ccc(S(=O)(=O)N=C(N)N)cc4)c3c2)cc1`, the TGI in the assay on 786-0 renal, in the assay on A498 renal, in the assay on HS 578T breast, in the assay on HT29 colon, in the assay on MCF7 breast and in the assay on MOLT-4 leukemia was over 100 µM each time. Also, the TGI in the assay with SF-539 CNS, with SK-OV-3 ovarian, in the assay with SR leukemia and with T-47D breast was over 100 µM in each case.

Turning to `CC1(CNCc2ccccc2)CC(CCc2ccccc2)N(C(=O)c2ccc([N+](=O)[O-])cc2)C1Cc1ccc(O)cc1` (stereo not given), the TGI was 25.9 µM in the assay with 786-0 renal; 26.7 µM in the assay with A498 renal; 46.8 µM with HS 578T breast; 22 µM with HT29 colon; 19.2 µM in the assay with MCF7 breast; over 100 µM in the assay on MOLT-4 leukemia. For the same compound, the TGI in the assay on SF-539 CNS is 35.2 µM; in the assay with SK-OV-3 ovarian, 34.6 µM; in the assay with SR leukemia it was over 100 µM; with T-47D breast, 18.8 µM.

As to `C=C1C(=O)O[C@@]23C1CC[C@@H](C)C2CC[C@@]1(C)OC31` (stereo not given in full), the TGI in the assay with 786-0 renal was 26.6 µM; in the assay on A498 renal, 59.1 µM; in the assay with HS 578T breast, 46.5 µM; with HT29 colon, 25.6 µM; in the assay on MCF7 breast, 24.9 µM; in the assay on MOLT-4 leukemia, 31.8 µM. Further, the TGI was determined as 12.2 µM in the assay on SF-539 CNS, 47.6 µM in the assay with SK-OV-3 ovarian, 33.2 µM in the assay with SR leukemia and 19.2 µM in the assay on T-47D breast.

With `O=C(Nc1ccccc1C(=O)NCCCO)/C(=C/c1ccccc1O)NC(=O)c1ccccc1`, the TGI was over 89.9 µM in the assay on 786-0 renal; over 100 µM with A498 renal; 77.6 µM in the assay on HS 578T breast; over 100 µM with HT29 colon; over 100 µM with MCF7 breast; over 100 µM with MOLT-4 leukemia. Besides, the TGI is over 63.2 µM in the assay on SF-539 CNS, over 100 µM with SK-OV-3 ovarian, over 100 µM with SR leukemia and over 100 µM in the assay on T-47D breast.

In the case of `Cc1c2ncccc2cc2oc3ccccc3c(=O)c12`, the TGI in the assay with 786-0 renal is over 100 µM; in the assay on A498 renal, over 100 µM; in the assay with HS 578T breast, over 100 µM; in the assay on HT29 colon, over 100 µM; with MCF7 breast, over 100 µM; in the assay on MOLT-4 leukemia, 23.5 µM. For the same compound, the TGI is over 100 µM in the assay with SF-539 CNS, over 100 µM in the assay on SK-OV-3 ovarian, over 100 µM in the assay with SR leukemia and 61.7 µM in the assay on T-47D breast.

In the case of `CN(C)S(=O)(=O)Nc1nnc(S(N)(=O)=O)s1`, the TGI in the assay with 786-0 renal, in the assay on A498 renal, in the assay with HS 578T breast, with HT29 colon, in the assay with MCF7 breast and with MOLT-4 leukemia was over 100 µM in each case. Besides, the TGI in the assay on SF-539 CNS, with SK-OV-3 ovarian, in the assay with SR leukemia and in the assay with T-47D breast was over 100 µM throughout.

As for `c1ccc2c3c(c(N4CCOCC4)nc2c1)CCCC3`, the TGI in the assay on 786-0 renal is 92.9 µM; with A498 renal, 81.6 µM; in the assay on HS 578T breast it was over 100 µM; in the assay on HT29 colon, over 100 µM; in the assay with MCF7 breast it was over 100 µM; in the assay with MOLT-4 leukemia it was over 100 µM. The TGI in the assay on SF-539 CNS is 61.4 µM; in the assay on SK-OV-3 ovarian, over 100 µM; with SR leukemia, over 100 µM; with T-47D breast, 72.8 µM.
